# Patent US20050130252A1, “Stabilized susceptibility tests of aerobic pathogens” (Wyeth Holdings Corporation, priority 2003, published 2005)
# Read-outs that look alike come from different tables or passages of the source.
# Legend:
# Assay in all cases: Broth microdilution MIC
# [1] = tested on: E. faecalis ATCC 29212; format: cell-based, Enterococcus faecalis; conditions: for MIC: Enterococcus faecalis, ATCC29212, E. faecalis ATCC 29212, read-out: Minimal Inhibitory Concentration; for Minimal Inhibitory Concentration: E. faecalis ATCC 29212
# Description: (§1) The process for preparing susceptibility test medium are the following steps: • a. Preparing Mueller Hinton Broth II medium by adding 22 grams powdered media to 1.0 liter distilled water; • b. Autoclaving (121° C., 15 psi, 15 minutes) and cooling the medium; • c. Adding Oxyrase® up to about 10% final volume and keeping at 35-37° C. in an incubator for 30 minutes; • d. Adding about 50 μL to each well of a 96 well microtiter plate; • e. Weighing drug and adding broth to drug to bring up to about (standard 128 μg/ml); • f. Adding 50 μL of the drug to the first column of the titer plate; • g. Diluting by two-fold serial diluting across or down the plate. • h. Preparing a Prompt™ inoculum at 10^8 CFU/ml; • i. Diluting inoculum 1:100 in the broth at […] in 9.9 ml (1:100) is 10^6 colony forming units (CFU) forming the adjusted inoculum; • j. Adding 50 μL of the adjusted inoculum to the wells of the microtiter plate; • k. Incubating the plates at 35-37° C. for 18-22 hours; and • l. Reading, with the unaided eye, the MIC.
# (§2) The in vitro activities of tigecycline and control antibiotics were determined by the broth microdilution method as recommended by the NCCLS. (National Committee for Clinical Laboratory Standards, 2003. Methods for Dilution Antimicrobial Susceptibility Tests for Bacteria That Grow Aerobically; Approved Standards: M7-A6, Sixth ed, vol. 23., National Committee for Clinical Laboratory Standards Wayne, Pa.) was used for the standard procedures. MBH with 5% lysed horse blood was used for testing S. pneumoniae and Haemophilus Test Medium was used for testing H. influenzae. Oxyrase® (Oxyrase Inc, Mansfield, Ohio) was used according to the manufacturer's instructions by adding 1 ml of Oxyrase® to 50 ml of media. Media age studies were performed by preparing MHB in multiple flasks, then storing the media under various conditions. MICs were usually performed in duplicate on each day of testing. Storage under anaerobic conditions was conducted in an anaerobic chamber (MACS MG 1000, Don Whitley Scientific LTD). The pH of the media was determined by pH meter (Corning 430). A comparison of the in vitro activity of tigecycline by agar and broth dilution methodolgies with and without Oxyrase® against clinical isolates is shown in Table 1.
# [2] = tested on: S. aureus ATCC 25923; format: cell-based, Staphylococcus aureus; conditions: for MIC: Staphylococcus aureus, ATCC25923, S. aureus ATCC 25923, read-out: Minimal Inhibitory Concentration; for Minimal Inhibitory Concentration: S. aureus ATCC 25923
# Description: as §1, §2
# [3] = tested on: S. aureus ATCC 29213; format: cell-based, Staphylococcus aureus; conditions: Staphylococcus aureus, ATCC29213, S. aureus ATCC 29213, read-out: Minimal Inhibitory Concentration
# Description: as §1, §2
# [4] = tested on: E. coli ATCC 25922; format: cell-based, Escherichia coli; conditions: for MIC: Escherichia coli, ATCC25922, E. coli ATCC 25922, read-out: Minimal Inhibitory Concentration; for Minimal Inhibitory Concentration: E. coli ATCC 25922
# Description: as §1, §2
# [5] = tested on: P. aeruginosa ATCC 27853; format: cell-based, Pseudomonas aeruginosa; conditions: for MIC: Pseudomonas aeruginosa, ATCC27853, P. aeruginosa ATCC 27853, read-out: Minimal Inhibitory Concentration; for Minimal Inhibitory Concentration: P. aeruginosa ATCC 27853
# Description: as §1, §2
# [6] = Mueller Hinton Broth II (Fresh)
# [7] = Mueller Hinton Broth II (MHB II)
SMILES,MIC ([1]; MHB II + 0.05% Catalase),MIC ([1]; MHB II + 0.05% L-ascorbic Acid),MIC ([1]; MHB II + 0.05% L-cysteine),MIC ([1]; MHB II + 0.05% Sodium Pyruvate),MIC ([1]; MHB II + 0.05% Thioglycolate),"MIC [1, 6]",MIC ([2]; MHB II + 0.05% Sodium Pyruvate),MIC ([3]; MHB II + 0.05% Catalase),MIC ([3]; MHB II + 0.05% L-ascorbic Acid),MIC ([3]; MHB II + 0.05% L-cysteine),MIC ([3]; MHB II + 0.05% Thioglycolate),MIC ([3]; MHB II + 2% Oxyrase),"MIC [3, 6]","MIC [3, 7]",MIC ([4]; MHB II + 0.05% Catalase),MIC ([4]; MHB II + 0.05% L-ascorbic Acid),MIC ([4]; MHB II + 0.05% L-cysteine),MIC ([4]; MHB II + 0.05% Sodium Pyruvate),MIC ([4]; MHB II + 0.05% Thioglycolate),MIC ([4]; MHB II + 2% Oxyrase),further results
CN(C)[C@@H]1C(O)=C(C(N)=O)C(=O)[C@@]2(O)C(O)=C3C(=O)c4c(O)cccc4[C@@](C)(O)[C@H]3C[C@@H]12 [Tetracycline],16 µg/mL,> 4 µg/mL,> 4 µg/mL,16 µg/mL,> 16 µg/mL,> 4 µg/mL,1 µg/mL,1 µg/mL,2 µg/mL,1 µg/mL,1 µg/mL,0.5 to 1 µg/mL,1 to 2 µg/mL,0.5 to 1 µg/mL,4 µg/mL,> 4 µg/mL,4 µg/mL,2 µg/mL,4 µg/mL,1 µg/mL,"MIC [4, 6]: 1 to 2 µg/mL; MIC [4, 7]: 1 to 2 µg/mL"
CN(C)c1ccc(O)c2c1C[C@H]1C[C@H]3[C@H](N(C)C)C(O)=C(C(N)=O)C(=O)[C@@]3(O)C(O)=C1C2=O [Minocycline],4 µg/mL,4 µg/mL,4 µg/mL,2 µg/mL,8 µg/mL,4 µg/mL,0.25 µg/mL,0.5 µg/mL,1 µg/mL,0.25 µg/mL,0.25 µg/mL,0.12 to 0.25 µg/mL,0.12 to 0.5 µg/mL,0.25 to 0.5 µg/mL,1 µg/mL,4 µg/mL,2 µg/mL,0.5 µg/mL,1 µg/mL,0.5 µg/mL,"MIC ([1]; 2% Oxyrase): 2 µg/mL; MIC ([1]; MHB II + 2% Oxyrase): 2 to 4 µg/mL; MIC [1, 7]: 4 to 8 µg/mL; MIC ([1]; No Oxyrase): 4 µg/mL; MIC ([2]; 2% Oxyrase): 0.12 µg/mL; MIC ([2]; No Oxyrase): 0.25 µg/mL; MIC ([5]; 2% Oxyrase): 16 µg/mL; MIC ([5]; No Oxyrase): > 16 µg/mL; MIC ([4]; 2% Oxyrase): 0.5 µg/mL; MIC [4, 6]: 0.5 to 1 µg/mL; MIC [4, 7]: 0.5 to 1 µg/mL; MIC ([4]; No Oxyrase): 1 µg/mL"
"CN(C)CC(=O)Nc1cc(N(C)C)c2c(c1O)C(=O)C1=C(O)C3(O)C(=O)C(C(N)=O)=C(O)C(N(C)C)C3CC1C2 (stereo not shown) [DMG-MINO, N,N-dimethylglycylamido 9-aminominocycline]",,,,,,,,,,,,,,,,,,,,,Minimal Inhibitory Concentration ([1]; 2% Oxyrase): 0.03 µg/mL; Minimal Inhibitory Concentration ([1]; No Oxyrase): 0.25 µg/mL; Minimal Inhibitory Concentration ([2]; 2% Oxyrase): 0.12 µg/mL; Minimal Inhibitory Concentration ([2]; No Oxyrase): 0.50 µg/mL; Minimal Inhibitory Concentration ([5]; 2% Oxyrase): 16 µg/mL; Minimal Inhibitory Concentration ([5]; No Oxyrase): 16 µg/mL; Minimal Inhibitory Concentration ([4]; 2% Oxyrase): 0.06 µg/mL; Minimal Inhibitory Concentration ([4]; No Oxyrase): 0.25 µg/mL
"CN(C)CC(=O)Nc1ccc2c(c1O)C(=O)C1=C(O)C3(O)C(=O)C(C(N)=O)=C(O)C(N(C)C)C3CC1C2 (stereo not shown) [DMG-DMDOT, N,N-dimethylglycylamido 9 amino-6-demethyl-6-deoxytetracycline]",,,,,,,,,,,,,,,,,,,,,Minimal Inhibitory Concentration ([1]; 2% Oxyrase): 0.06 µg/mL; Minimal Inhibitory Concentration ([1]; No Oxyrase): 0.06 µg/mL; Minimal Inhibitory Concentration ([2]; 2% Oxyrase): 0.12 µg/mL; Minimal Inhibitory Concentration ([2]; No Oxyrase): 0.25 µg/mL; Minimal Inhibitory Concentration ([5]; 2% Oxyrase): 8 µg/mL; Minimal Inhibitory Concentration ([5]; No Oxyrase): 16 µg/mL; Minimal Inhibitory Concentration ([4]; 2% Oxyrase): 0.12 µg/mL; Minimal Inhibitory Concentration ([4]; No Oxyrase): 0.12 µg/mL
